Results on six molecules are retold here after ChEMBL document CHEMBL3045886, “Benzothiazole Schiff-bases as potential imaging agents for -amyloid plaques in Alzheimers disease” (Med Chem Res, 2013).

Active and inactive are the calls of the source. The calls are words filed in the database; no cut-off is given here.

In general, Ki refers to a dissociation constant, usually derived from enzyme kinetics or from competition with a known ligand. Low values mean tighter binding, high ones weaker binding.

For the first test, the target named is T1, Amyloid-beta precursor protein (Homo sapiens, UniProt P05067). The experiment in a line: Displacement of [125I]IMPY from beta amyloid (unknown origin) isolated from alzheimer's patient brain homogenates after 2 hr by gamma counting analysis. (In general: Loss of bound radioactivity is the signal in a displacement assay; it reports binding, not function.)
T1 sequence (P05067 whole entry): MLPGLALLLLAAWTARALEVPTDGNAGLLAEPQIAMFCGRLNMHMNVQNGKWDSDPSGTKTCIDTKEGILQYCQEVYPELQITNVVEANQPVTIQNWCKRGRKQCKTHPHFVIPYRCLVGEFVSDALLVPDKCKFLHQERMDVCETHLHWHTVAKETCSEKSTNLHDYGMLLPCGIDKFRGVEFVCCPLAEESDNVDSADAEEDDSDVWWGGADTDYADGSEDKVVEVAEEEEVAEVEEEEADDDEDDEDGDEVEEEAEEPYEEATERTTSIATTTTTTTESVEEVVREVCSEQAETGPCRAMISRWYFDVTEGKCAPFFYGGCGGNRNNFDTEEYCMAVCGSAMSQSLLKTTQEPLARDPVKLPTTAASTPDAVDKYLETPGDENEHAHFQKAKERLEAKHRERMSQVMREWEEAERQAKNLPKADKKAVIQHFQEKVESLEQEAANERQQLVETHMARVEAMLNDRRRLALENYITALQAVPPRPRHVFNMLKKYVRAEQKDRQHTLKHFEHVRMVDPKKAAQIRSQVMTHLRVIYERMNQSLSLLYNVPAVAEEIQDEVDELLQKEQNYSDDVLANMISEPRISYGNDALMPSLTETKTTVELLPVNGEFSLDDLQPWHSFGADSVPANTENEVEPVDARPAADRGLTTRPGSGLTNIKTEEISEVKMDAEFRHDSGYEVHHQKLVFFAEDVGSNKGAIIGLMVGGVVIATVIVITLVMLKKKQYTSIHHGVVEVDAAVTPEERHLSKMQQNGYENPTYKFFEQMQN
Molecule `COc1ccc2nc(/N=C/c3ccc([N+](=O)[O-])cc3)sc2c1` displayed a Ki of 515 nM. In other words, the sub-micromolar range.

Molecule `COc1ccc2nc(/N=C/c3ccc(N(C)C)cc3)sc2c1` registered an inhibition constant (Ki) of 4.38 nM. On to `COc1ccc(/C=N/c2nc3ccc(OC)cc3s2)cc1`, for which the Ki amounted to 10.8 nM.

Consider `COc1ccc2nc(/N=C/c3ccc(Br)cc3)sc2c1`, for which the Ki amounted to 106 nM. Molecule `COc1ccc2nc(/N=C/c3ccc(O)cc3)sc2c1` gave a Ki of 34.7 nM. The same measure, in the same setting: next, `COc1ccc2nc(/N=C/c3ccc(I)cc3)sc2c1`: 103 nM.

Another test concerns the target T1, Amyloid-beta precursor protein. The test is described as follows: Binding affinity to beta amyloid (unknown origin) isolated from alzheimer's patient brain homogenates at 50 uM after 20 min by fluorescence microscopic analysis relative to thioflavin S-treated control. The test is classed as tissue-based.
Turning to `COc1ccc2nc(/N=C/c3ccc(N(C)C)cc3)sc2c1`, the result was Active.
